{"source": "patent US7312219B2", "about": "“Heteroaromatic inhibitors of fructose 1,6-bisphosphatase” (Metabasis Therapeutics, Inc., priority 1998, dated 2007)", "key": {"[1]": {"system": "Fasted Rats", "experiment": "Blood Glucose Lowering Following Intravenous Administration to Fasted Rats", "type": "in vivo, rat", "details": "18 h fasted Sprague Dawley rats, relative to saline-treated controls", "procedure": "Inhibitors were disolved in water and the solution adjusted to neutrality with NaOH. Blood samples were obtained from the tail vein of conscious animals just prior to injection and after 1 hour. Blood glucose was measured using a HemoCue Inc. glucose analyzer according to the instructions of the manufacturer."}, "[2]": {"experiment": "Analysis of Drug Levels and Liver Accumulation in Rats", "type": "in vivo, rat", "details": "Sprague-Dawley, rat, iv; fasted rats, 10 mgs/kg i.v., one hour post injection, plasma; read-out: Plasma Conc.", "procedure": "The compound was dissolved in water and the solution adjusted to neutrality with NaOH. One hour post injection rats were anesthetized with halothane and a liver biopsy (approx. 1 g) was taken as well as a blood sample (2 ml) from the posterior vena cava. A heparin flushed syringe and needle were used for blood collection. The liver sample was immediately homogenized in ice-cold 10% perchloric acid (3 ml), centrifuged, and the supernatant neutralized with ⅓rd volume of 3 M KOH/3 M KHCO3. […] Plasma was prepared from the blood sample by centrifugation and extracted by addition of methanol to 60% (v/v). The methanolic extract was clarified by centrifugation and filtration and then analyzed by HPLC as described above."}, "[3]": {"system": "Fasted Rat", "experiment": "Glucose Lowering Following Oral Administration to the Fasted Rat", "type": "in vivo", "details": "oral gavage, 18-hour fasted rats, dose 30 mg/kg, time point 2 h, relative to saline controls", "procedure": "Compounds were administered by oral gavage to 18-hour fasted, Sprague Dawley rats (250–300 g, n =3/4/group). Phosphonic acids were prepared in deionized water, and the solution adjusted to neutrality with solidum hydroxide. Prodrugs were dissolved in polyethylene glycol (mw 400). […] The table below indicates the maximum glucose lowering achieved relative to control animals dosed with saline."}, "[4]": {"system": "Zucker Diabetic Fatty rats", "experiment": "Blood Glucose Lowering in Zucker Diabetic Fatty Rats, Oral", "type": "in vivo, rat", "procedure": "Zucker Diabetic Fatty rats were purchased from Genetics Models Inc. (Indiannapolis, Ind.) at 8 weeks of age and fed the recommended Purina 5008 diet. At the age of 12 weeks, 16 animals with fed blood glucose levels between 500 and 700 mg/dl were selected and divided into two groups (n=8) with statistically equivalent average blood glucose levels. […] The drug solution for this treatment was prepared at 25 mg/ml in deionized water and adjusted to neutrality by dropwise addition of 5 N NaOH. A second group of rats (n=8) was dosed orally with saline, in parallel. Blood glucose was measured in each rat just prior to drug or saline administration and 6 hours post administration. A HemoCue blood glucose analyzer (HemoCue Inc., Mission Viejo, Calif.) was used for these measurements according to the manufacturer's instructions."}, "[5]": {"system": "Zucker Diabetic Fatty rats", "experiment": "Blood Glucose Lowering in Zucker Diabetic Fatty Rats, Intravenous", "type": "in vivo, rat", "details": "six hour time point", "procedure": "12-week old Zucker Diabetic Fatty rats (Genetics Models Inc., Indiannapolis, Ind.) maintained on Purina 5008 diet were instrumented with tail artery and tail vein catethers at 8 am on the day of the study. Food was removed for the remainder of the day. […] Blood samples were obtained from the tail artery catheter at the start of the infusions, and at hourly intervals thereafter. Glucose was measured in the samples by means of a HemoCue analyzer (HemoCue Inc., Mission Viejo, Calif.) according to the manufacturer's instructions."}, "[6]": {"system": "Gluconeogenesis in Zucker Diabetic Fatty Rats", "experiment": "Inhibition of Gluconeogenesis by FBPase Inhibitor in Zucker Diabetic Fatty Rats (14C-bicarbonate to 14C-glucose)", "type": "in vivo, rat", "details": "after 6-hour infusion at 3 mg/kg/h, n=3/group", "procedure": "Following a 6-hour infusion of 3.26 at 3 mg/kg/h or saline to Zucker Diabetic Fatty rats (n=3/group) as described in Example K, a bolus of ^14C-bicarbonate (40 μCi/100 g body weight) was administered via the tail vein catheter. 20 minutes later, a blood sample (0.6 mL) was taken via the tail artery. Blood (0.5 ml) was diluted into 6 mL deionized water and protein precipitated by addition of 1 mL zinc sulfate (0.3 N) and 1 mL barium hydroxide (0.3 N). The mixture was centrifuged (20 minutes, 1000×g) and 5 mL of the resulting supernatant was then combined with 1 g of a mixed bed ion exchange resin (1 part AG 50W-X8, 100–200 mesh, hydrogen form, and 2 parts AG 1-X8, 100–200 mesh, acetate form) to separate ^14-C-bicabonate from ^14C-glucose. The slurry was shaken at room temperature for four hours and then allowed to settle. An aliquot of the supernatant (0.5 mL) was then counted in 5 mL scintillation cocktail. The percentage inhibition of gluconeogenesis in drug-treated rats was calculated by dividing the average cpm of ^14C-glucose in samples from drug-treated animals by those from saline-injected animals."}, "[7]": {"system": "db/db Mouse", "experiment": "Hepatic Glycogen Levels in the db/db Mouse", "type": "in vivo", "details": "db/db mice", "procedure": "Db/db mice and their nondiabetic db/+ littermates were obtained at 8 weeks of age (Jackson Labs., Bar Harbor, Me.) and enrolled in the study at 11 weeks of age. […] Db/+ mice were treated with saline according to the same schedule. At 6 pm, mice were anesthetized with halothane and a small section of liver (0.5 g) was removed by the freeze-clamping technique. The liver samples were fully frozen by subsequent immersion in liquid nitrogen and then homogenized in 5 volumes of cold 0.6 N perchloric acid. Glycogen content was determined enzymatically in the homogenates by the method of Keppler and Decker (Keppler D and Decker K in Methods of Enzymatic Analysis, Bergmeyer, H U, Ed., Verlag Chemie International, Deerfield Beach, Fla., 1974)."}}, "data": [{"molecule": "CSc1sc(N)nc1-c1ccc(P(=O)(O)O)o1", "note": "[Compound 3.26, 2-Amino-5-methylthio-4-[2-(5-phosphono)furanyl]thiazole]", "values": [{"measurement": "blood glucose lowering", "setting": "[1]; 3 mg/kg intravenous", "result": 52, "unit": "%"}, {"measurement": "inhibition in vivo at 10 mg/kg", "setting": "[1]; Rattus norvegicus, iv, 10 mg/kg i.v., 1 hour", "result": 73, "unit": "%"}, {"measurement": "concentration at 1 h", "setting": "[2]", "result": "56 ± 2", "unit": "µM"}, {"measurement": "% Glucose Lowering (maximum)", "setting": "[3]", "result": 70, "unit": "%"}, {"measurement": "lowering of blood glucose relative to saline treated controls", "setting": "[4]; 100 mg/kg oral, 6 hours post administration, p=0.01", "result": 15.4, "unit": "%"}, {"measurement": "Blood Glucose, 7 pm", "setting": "[4]; 6 hours post 100 mg/kg oral gavage, n=8", "result": "497 ± 14", "unit": "mg/dL"}, {"measurement": "Blood Glucose, 1 pm", "setting": "[4]; just prior to administration of 100 mg/kg by oral gavage, n=8", "result": "573 ± 26", "unit": "mg/dL"}, {"measurement": "decrease in blood glucose relative to saline-infused controls", "setting": "[5]; 3 mg/kg/h tail vein infusion", "result": 29, "unit": "%"}, {"measurement": "decrease in blood glucose relative to saline-infused controls", "setting": "[5]; 30 mg/kg/h tail vein infusion", "result": 39, "unit": "%"}, {"measurement": "14C-Glucose production inhibited", "setting": "[6]", "result": 75, "unit": "%"}, {"measurement": "liver glycogen stores", "setting": "[7]; 100 mg/kg oral at 8 am and 2 pm, liver taken 6 pm", "result": "reduction of glycogen stores to levels that approached those of nondiabetic db/+ mice"}, {"measurement": "Liver Glycogen", "setting": "[7]; 100 mg/kg orally at 8 am and 2 pm, Evening, 6 pm", "result": "34.4 ± 7.1 (n = 3) μmol glucose/g"}]}]}
